Measured values reported in US6903052B2, “Nematicidal compositions and methods” (Divergence, Inc., priority 2002, dated 2005).

Legend:
C. elegans [1] = test: Nematicidal activity of single fatty acid methyl ester emulsions against Caenorhabditis elegans (Example 4); type: cell-based
Method: Mixed stage Caenorhabditis elegans were washed off plates seeded with OP50 bacteria using M9 solution. 250 μl of the M9 solution, which contained about 50 worms, was pipetted into each well of a 24-well plate.
(§1) Fatty acid methyl ester emulsions were prepared following the teachings of Kim et al (U.S. Pat. No. 5,698,592). Briefly, 1 ml 1% stock solution emulsions were prepared by mixing 10 μl of fatty acid methyl ester with 20 μl of the surfactant Igepal CO 630 in a 1.5 ml eppendorf tube. After careful mixing of fatty acid and Igepal CO 630, 850 μl of ddH20 was added and mixed by gentle pipetting until a homogeneous solution was obtained. Finally, 120 μl of pure isopropanol was added and mixed by gentle pipetting. This stock solution was then used to produce various fatty acid methyl ester dilution emulsions in 24-well plate assays.
To each well, fatty acid emulsions or control emulsions were added and rapidly mixed by swirling. Nematode viability was scored by visual observation and motility assays at various time points 24 hours following addition of emulsions or controls. The fatty acid emulsions tested were methyl esters of nonanoic (pelargonic) acid, ricinoleic acid, vernolic acid, linoleic acid, oleic acid, and control emulsions lacking fatty acids.

M. javanica [2] = test: Nematicidal activity of fatty acid methyl ester emulsions against root knot nematode J2 larvae (Example 6); type: cell-based, Meloidogyne javanica; details: 0.1% emulsion; 48 hours incubation, counted about 24 hours after transfer to plates
Method: as §1
(§2) Meloidogyne incognita and javanica were prepared from tomato roots. The roots were bleached and the debris was separated from the J2 larvae and eggs by filtration followed by sucrose density gradient centrifugation. Eggs were hatched over 4 days at 15° C. and the J2 larvae were collected by passage though a filter, followed by centrifugation.
(§3) Nematodes and emulsions were incubated with shaking at room temperature for 48 hours. The contents of each well were transferred to a small spot on individual NGM plates lacking bacteria. About 24 hours after the transfer to plates, worms on and off the inoculation spot were counted as not viable or viable, respectively. Worms were considered viable if they had crawled away from the inoculation spot, or if they were moving. Worms were considered non-viable if they remained at the inoculation spot.

M. incognita [3] = test: as above; type: cell-based, Meloidogyne incognita; details: 0.1% emulsion; 48 hours incubation, counted about 24 hours after transfer to plates
Method: as §1, §2, §3

[4] = test system: root knot nematodes (Meloidogyne spp.); test: Nematicidal activity against root knot nematodes, summary statement; type: cell-based; details: concentration of 0.1%
Method: as §2, §3

C. elegans [5] = test: Nematicidal activity of fatty acid methyl ester emulsions, spectrum (Example 8); type: cell-based, Caenorhabditis elegans; details: C. elegans mixed stage
Method: (§4) Briefly, the indicated fatty acid emulsions were added and rapidly mixed by swirling. Nematode viability was scored by visual observation and motility assays 24 hours following addition of emulsions (48 hours for plant parasitic nematodes Meloidogyne and Heterodera species). The fatty acid emulsions tested were methyl esters of nonanoic (pelargonic) acid, ricinelaidic acid, ricinoleic acid, vernolic acid, linoleic acid, and oleic acid. […] Results shown are mean % values obtained from multiple independent experiments
(§5) The Caenorhabiditis elegans were mixed stage populations. Similar effects seen on several other free-living nematode species. The Parastrongyloides trichosuri (parasite of Australian bushtail possum) were dauer-like infective 3rd stage larva. Similar effects are also seen against free-living stages. The Meloidogyne incognita and Meloidogyne javanica (root knot nematode) were 2nd stage juveniles (dauer-like infective stage). The Heterodera glycines (soybean cyst nematode) were 2nd stage juveniles (dauer-like infective stage). Finally, the Pratylenchus scribneri (corn lesion nematode) were mixed stage populations.

P. trichosuri = test: as above; type: cell-based, Parastrongyloides trichosuri; details: P. trichosuri infective 3rd stage larva
Method: as §4, §5

M. incognita [6] = test: as above; type: cell-based, Meloidogyne incognita; details: M. incognita 2nd stage juveniles, scored at 48 hours
Method: as §4, §5

M. javanica [7] = test: as above; type: cell-based, Meloidogyne javanica; details: M. javanica 2nd stage juveniles, scored at 48 hours
Method: as §4, §5

H. glycines = test: as above; type: cell-based, Heterodera glycines; details: H. glycines 2nd stage juveniles, scored at 48 hours
Method: as §4, §5

P. scribneri = test: as above; type: cell-based, Pratylenchus scribneri; details: P. scribneri mixed stage
Method: as §4, §5

B. malayi = test: Nematicidal activity of tween-based emulsions against microfilarial nematodes; type: cell-based, Brugia malayi
Method: To each well, tween-based fatty acid emulsions were added and rapidly mixed by swirling. Nematode microfilaria viability was scored by visual observation of motility at 24 and 48 hours following addition of emulsions. The fatty acid emulsions tested were methyl esters of ricinoleic acid, vernolic acid, ricinelaidic acid, oleic acid, and control emulsions lacking fatty acids. The results of this study are presented in Table 7 as the percentage of non-motile microfilaria 24 hours after inoculation and in Table 8 as the percentage of non-motile microfilaria 48 hours after inoculation

tomato seedlings = test: Phytotoxicity evaluation on tomato seedlings; type: in vivo; details: for Visible effects on tomato seedlings: 250 μl of 1% emulsion applied to stem-media interface of two-week seedlings; for Phytotoxic effect on tomato seedlings: 1% emulsion
Method: Sterilized tomato seeds were germinated in magenta jars containing Gamborg's agar media. After two weeks of growth, seedlings were treated with 250 μl of 1% fatty acid methyl ester emulsion (nonanoic acid, ricinoleic acid, ricinelaidic acid, oleic acid, or a control emulsion lacking any fatty acid), applied directly to the stem-media interface. Tomato seedlings were scored at various times after application of emulsions.

[8] = test system: free-living, animal parasitic, and plant parasitic nematodes; test: Nematicidal activity across the spectrum of nematodes, summary statement (Example 8); type: cell-based
Method: as §4, §5

C. elegans [9] = test: Nematicidal activity of emulsions made with Tween-20 (replacing Igepal CO 630) against C. elegans; type: cell-based, Caenorhabditis elegans; details: Tween-20 emulsion
Method: Some nematodes assayed as described in Example 9 lacked tolerance to emulsions made with the surfactant Igepal CO 630. For this reason some assays were repeated with Tween-20-based emulsions.
as §1, with “Briefly,” for “Fatty acid methyl ester emulsions were prepared following the teachings of Kim et al (U.S. Pat. No. 5,698,592). Briefly,”, “Tween-20” for “Igepal CO 630”, “Tween-20,” for “Igepal CO 630,”

[10] = 24 hrs post-inoculation, 0.0008%
[11] = 24 hrs post-inoculation, 0.0016%
[12] = 24 hrs post-inoculation, 0.003%
[13] = 24 hrs post-inoculation, 0.005%
[14] = 24 hrs post-inoculation, 0.0067%
[15] = 24 hrs post-inoculation, 0.008%
[16] = 48 hrs post-inoculation, 0.0008%
[17] = 48 hrs post-inoculation, 0.0016%
[18] = 48 hrs post-inoculation, 0.003%
[19] = 48 hrs post-inoculation, 0.005%
[20] = 48 hrs post-inoculation, 0.0067%
[21] = 48 hrs post-inoculation, 0.008%

## CCCCC[C@H]1O[C@H]1C/C=C\CCCCCCCC(=O)OC [Vernolic Acid (C18-methyl ester), (12,13)-epoxy-cis-9-octadecenoic acid methyl ester]
C. elegans [1]; 0.003% emulsion, 1 hr
  Percentage of Worm Death: 20%
C. elegans [1]; 0.003% emulsion, 6 hr
  Percentage of Worm Death: 20%
C. elegans [1]; 0.003% emulsion, 24 hr
  Percentage of Worm Death: 20%
C. elegans [1]; 0.1% emulsion, 1 hr
  Percentage of Worm Death: 65%
C. elegans [1]; 0.1% emulsion, 6 hr
  Percentage of Worm Death: 65%
C. elegans [1]; 0.1% emulsion, 24 hr
  Percentage of Worm Death: 75%
M. javanica [2]
  M. javanica (% not viable): 90%
M. incognita [3]
  M. incognita (% not viable): 100%
[4]
  Nematicidal activity (in words): significant nematicidal activity
C. elegans [5]; 0.001% solution
  % Worm Death (24 hr): 30%
C. elegans [5]; 0.01% solution
  % Worm Death (24 hr): 50%
C. elegans [5]; 0.1% solution
  % Worm Death (24 hr): 80%
P. trichosuri; 0.01% solution
  % Worm Death (24 hr): ˜90%
P. trichosuri; 0.1% solution
  % Worm Death (24 hr): ˜95%
M. incognita [6]; 0.01% solution
  % Worm Death (24 hr): 73%
M. incognita [6]; 0.1% solution
  % Worm Death (24 hr): 98%
M. javanica [7]; 0.01% solution
  % Worm Death (48 hr): 60%
M. javanica [7]; 0.1% solution
  % Worm Death (48 hr): 90%
H. glycines; 0.001% solution
  % Worm Death (24 hr): 18%
H. glycines; 0.01% solution
  % Worm Death (24 hr): 20%
H. glycines; 0.1% solution
  % Worm Death (24 hr): 30%
P. scribneri; 0.01% solution
  % Worm Death (24 hr): <20%
P. scribneri; 0.1% solution
  % Worm Death (24 hr): <20%
B. malayi; [10]
  percentage of non-motile microfilaria: 0%
B. malayi; [11]
  percentage of non-motile microfilaria: 0%
B. malayi; [12]
  percentage of non-motile microfilaria: 0%
B. malayi; [13]
  percentage of non-motile microfilaria: 66%
B. malayi; [14]
  percentage of non-motile microfilaria: 100%
B. malayi; [15]
  percentage of non-motile microfilaria: 100%
B. malayi; [16]
  percentage of non-motile microfilaria: 0%
B. malayi; [17]
  percentage of non-motile microfilaria: 0%
B. malayi; [18]
  percentage of non-motile microfilaria: 5%
B. malayi; [19]
  percentage of non-motile microfilaria: 100%
B. malayi; [20]
  percentage of non-motile microfilaria: 100%
B. malayi; [21]
  percentage of non-motile microfilaria: 100%

## CCCCCCC(O)C/C=C/CCCCCCCC(=O)OC (stereo not drawn) [Ricinelaidic, 12-hydroxy-trans-9-octadecenoic acid methyl ester]
Tomato seedlings
  Visible effects on tomato seedlings: none of the tomatoes treated with the other fatty acid methyl ester emulsions showed visible effects
C. elegans [5]; 0.001% solution
  % Worm Death (24 hr): 75%
C. elegans [5]; 0.01% solution
  % Worm Death (24 hr): 100%
C. elegans [5]; 0.1% solution
  % Worm Death (24 hr): 100%
P. trichosuri; 0.01% solution
  % Worm Death (24 hr): 100%
P. trichosuri; 0.1% solution
  % Worm Death (24 hr): 100%
M. incognita [6]; 0.001% solution
  % Worm Death (24 hr): 97%
M. incognita [6]; 0.01% solution
  % Worm Death (24 hr): ˜99%
M. incognita [6]; 0.1% solution
  % Worm Death (24 hr): ˜99%
M. javanica [7]; 0.001% solution
  % Worm Death (48 hr): ˜60%
M. javanica [7]; 0.01% solution
  % Worm Death (48 hr): 100%
M. javanica [7]; 0.1% solution
  % Worm Death (48 hr): 100%
H. glycines; 0.001% solution
  % Worm Death (24 hr): 100%
H. glycines; 0.01% solution
  % Worm Death (24 hr): 100%
H. glycines; 0.1% solution
  % Worm Death (24 hr): 100%
P. scribneri; 0.01% solution
  % Worm Death (24 hr): ˜40%
P. scribneri; 0.1% solution
  % Worm Death (24 hr): ˜70%
[8]
  Breadth of nematicidal activity (in words): favorable nematicidal activity against a wide spectrum of divergent nematode genera
[8]; concentrations of 0.1% and 0.01%
  Nematicidal activity (in words): strongly nematicidal
C. elegans [9]; 0.001% solution
  % Worm Death (24 hr): 60%
C. elegans [9]; 0.01% solution
  % Worm Death (24 hr): 100%
C. elegans [9]; 0.1% solution
  % Worm Death (24 hr): 100%
B. malayi; [10]
  percentage of non-motile microfilaria: 0%
B. malayi; [11]
  percentage of non-motile microfilaria: 19.1%
B. malayi; [12]
  percentage of non-motile microfilaria: 100%
B. malayi; [13]
  percentage of non-motile microfilaria: 100%
B. malayi; [14]
  percentage of non-motile microfilaria: 100%
B. malayi; [15]
  percentage of non-motile microfilaria: 100%
B. malayi; [16]
  percentage of non-motile microfilaria: 0%
B. malayi; [17]
  percentage of non-motile microfilaria: 49.4%
B. malayi; [18]
  percentage of non-motile microfilaria: 100%
B. malayi; [19]
  percentage of non-motile microfilaria: 100%
B. malayi; [20]
  percentage of non-motile microfilaria: 100%
B. malayi; [21]
  percentage of non-motile microfilaria: 100%
B. malayi; tween-based emulsions
  Microfilarialcidal activity (in words): strong microfilarialcidal activity

## CCCCCCCCC(=O)OC [Nonanoic (C9-methyl ester), pelargonic acid methyl ester, reference compound]
C. elegans [1]; 0.003% emulsion, 1 hr
  Percentage of Worm Death: 50%
C. elegans [1]; 0.003% emulsion, 6 hr
  Percentage of Worm Death: 50%
C. elegans [1]; 0.003% emulsion, 24 hr
  Percentage of Worm Death: 50%
C. elegans [1]; 0.1% emulsion, 1 hr
  Percentage of Worm Death: 100%
C. elegans [1]; 0.1% emulsion, 6 hr
  Percentage of Worm Death: 100%
C. elegans [1]; 0.1% emulsion, 24 hr
  Percentage of Worm Death: 100%
C. elegans [1]; concentration of 0.1%
  Nematicidal activity (in words): strongly nematicidal
C. elegans [1]; emulsion, C. elegans
  Onset of effect on nematode movement (in words): almost immediate cessation of nematode movement and subsequent death
M. javanica [2]
  M. javanica (% not viable): 100%
M. incognita [3]
  M. incognita (% not viable): 100%
[4]
  Nematicidal activity (in words): significant nematicidal activity
Tomato seedlings; within 18 hours of application
  Phytotoxic effect on tomato seedlings: distinct loss of turgor pressure (wilting phenotype)
Tomato seedlings; within 24 hours
  Phytotoxic effect on tomato seedlings: almost entirely bleached to a pale white color and had nearly totally collapsed
Tomato seedlings
  Visible effects on tomato seedlings: showed obvious effects on the tomatoes
C. elegans [5]; 0.001% solution
  % Worm Death (24 hr): 30%
C. elegans [5]; 0.01% solution
  % Worm Death (24 hr): 100%
C. elegans [5]; 0.1% solution
  % Worm Death (24 hr): 100%
M. incognita [6]; 0.1% solution
  % Worm Death (24 hr): 100%
M. javanica [7]; 0.1% solution
  % Worm Death (48 hr): 100%
H. glycines; 0.01% solution
  % Worm Death (24 hr): >95%
H. glycines; 0.1% solution
  % Worm Death (24 hr): 100%
P. scribneri; 0.01% solution
  % Worm Death (24 hr): <20%
P. scribneri; 0.1% solution
  % Worm Death (24 hr): <20%
C. elegans [9]; 0.001% solution
  % Worm Death (24 hr): 30%
C. elegans [9]; 0.01% solution
  % Worm Death (24 hr): 100%
C. elegans [9]; 0.1% solution
  % Worm Death (24 hr): 100%
